From patent publication US10941137B2, “Difluoromethyl-phenyl triazoles” (Boehringer Ingelheim International GmbH, priority 2018, dated 2021)

Columns and labels:
α5β2γ2 GABAA receptor = biological target: T1, α5β2γ2 GABAA receptor (Homo sapiens, UniProt P18507+P31644); experiment: Assay B: modulation of α5β2γ2 GABAA receptor, two-electrode voltage clamp in oocytes; type: cell-based; conditions: for EC50: oocytes, TEVC, co-application with GABA 0.5 μM (EC5-20), read-out: Assay B: GABAA α5β3γ2 EC50
T1 sequence (P31644 32-462): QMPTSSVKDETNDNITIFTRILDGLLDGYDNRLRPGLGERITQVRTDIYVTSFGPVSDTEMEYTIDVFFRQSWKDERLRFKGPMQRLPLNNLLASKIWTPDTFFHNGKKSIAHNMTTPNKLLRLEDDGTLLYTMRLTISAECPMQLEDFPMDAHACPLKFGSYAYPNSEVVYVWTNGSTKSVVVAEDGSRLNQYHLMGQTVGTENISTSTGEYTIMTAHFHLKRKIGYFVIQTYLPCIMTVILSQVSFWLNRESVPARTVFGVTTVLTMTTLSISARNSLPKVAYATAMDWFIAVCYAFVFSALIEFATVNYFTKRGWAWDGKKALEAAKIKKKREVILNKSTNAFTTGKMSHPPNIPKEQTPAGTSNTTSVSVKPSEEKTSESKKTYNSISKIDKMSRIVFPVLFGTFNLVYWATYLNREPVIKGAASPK
T1 sequence (P18507 40-376 limits assumed): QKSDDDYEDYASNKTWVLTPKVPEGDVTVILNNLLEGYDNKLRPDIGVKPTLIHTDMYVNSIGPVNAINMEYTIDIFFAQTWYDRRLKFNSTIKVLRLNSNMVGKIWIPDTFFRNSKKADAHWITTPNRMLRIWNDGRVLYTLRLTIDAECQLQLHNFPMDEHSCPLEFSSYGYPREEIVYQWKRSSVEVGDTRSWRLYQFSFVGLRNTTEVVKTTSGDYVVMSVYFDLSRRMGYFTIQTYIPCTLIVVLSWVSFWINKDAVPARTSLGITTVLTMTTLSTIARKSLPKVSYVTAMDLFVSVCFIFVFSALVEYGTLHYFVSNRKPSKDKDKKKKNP
Experimental: Assay B: In vitro evaluation of modulation of α5β2γ2 GABAA receptor.
Modulatory efficacy of compounds of formula (I) is determined electrophysiological recordings in oocytes using the two-electrode voltage clamp (TEVC) technique. Oocytes are injected with cRNA for human GABAA receptor subunits α5, β2 and γ2 in a 3:1:3 ratio and modulatory efficacy is evaluated by co-applications with a submaximal EC5-20 GABA concentration (0.5 μM) termed GABA control. As a standard, the compounds are tested in five concentrations (3.16, 0.316, 0.0316, 0.00316 and 0.000316 μM) on each oocyte starting with the lowest concentration. Background subtracted peak current amplitudes are normalized to the respective GABA control current, converted to % change and depicted +/−S.E.M. as a function of increasing compound concentrations. Plotted datapoints are fitted to the empirical Hill equation using non-linear regression. 95% confidence intervals for maximal efficacy (Bottom) and potency (Log EC50) are derived from this fitting routine.

human MDR1 P-gp = experiment: Efflux in MDCK cells transfected with the human MDR1 gene (MDCK-PGP permeability); type: in vitro ADME, canine; conditions: dog, pH 7.4, 37° C.; for efflux ratio: PEBA/PEAB; for Papp A→B: apical-to-basal apparent permeability (PEAB)
Experimental: Assessment of Efflux in Madin-Darby Canine Kidney (MDCK) Cells Transfected with the 30 Human MDR1 Gene to Assess Brain Penetration (Drug Metabolism and Disposition February 2008, 36 (2) 268-275; DOI: https://doi.org/10.1124/dmd.107.017434) Apparent permeability coefficients (PE) of the compounds across the MDCK-MDR1 cell monolayers are measured (pH 7.4, 37° C.) in apical-to-basal (AB) and basal-to-apical (BA) transport direction. AB permeability (PEAB) represents drug absorption from the blood into the 35 brain and BA permeability (PEBA) drug efflux from the brain back into the blood via both passive permeability as well as active transport mechanisms mediated by efflux and uptake transporters that are expressed on the MDCK-MDR1 cells, predominantly by the overexpressed human MDR1 P-gp. The compounds are assigned to permeability/absorption classes by comparison of the AB permeabilities with the AB permeabilities of reference compounds with known in vitro permeability and oral absorption in the human. Identical or similar permeabilities in both transport directions indicate passive permeation, vectorial permeability points to additional active transport mechanisms. Higher PEBA than PEAB indicates the involvement of active efflux mediated by MDR1 P-gp. Active transport is concentration-dependently saturable.
MDCK-MDR1 cells (1-2×10e5 cells/1 cm2 area) are seeded on filter inserts (Costar transwell polycarbonate or PET filters, 0.4 μm pore size) and cultured (DMEM) for 7 days. Subsequently, the MDR1 expression is boosted by culturing the cells with 5 mM sodium butyrate in full medium for 2 days. Compounds are dissolved in appropriate solvent (like DMSO, 1-20 mM stock solutions). Stock solutions are diluted with HTP-4 buffer (128.13 mM NaCl, 5.36 mM KCl, 1 mM MgSO4, 1.8 mM CaCl2, 4.17 mM NaHCO3, 1.19 mM Na2HPO4×7H2O, 0.41 mM NaH2PO4xH2O, 15 mM HEPES, 20 mM glucose, 0.25% BSA, pH 7.4) to prepare the transport solutions (0.1-300 μM compound, final DMSO <=0.5%). The transport solution (TL) is applied to the apical or basolateral donor side for measuring A-B or B-A permeability (3 filter replicates), respectively. The receiver side contains the same buffer as the donor side. Samples are collected at the start and end of experiment from the donor and at various time intervals for up to 2 hours also from the receiver side for concentration measurement by HPLC-MS/MS or scintillation counting. Sampled receiver volumes are replaced with fresh receiver solution.

Compound	Assay B: GABAA α5β3γ2 Emax vs GABA (α5β2γ2 GABAA receptor) [%]	EC50 (α5β2γ2 GABAA receptor) [nM]	efflux ratio (human MDR1 P-gp)	Papp A→B (human MDR1 P-gp) [×10⁻⁶ cm/s]
Cc1nnn(-c2ccc(C(F)F)cc2)c1COc1ccc(-c2ccnc(O)c2)nn1 [Example 2, 4-[6-({1-[4-(difluoromethyl)phenyl]-4-methyl-1H-1,2,3-triazol-5-yl}methoxy)pyridazin-3-yl]pyridin-2-ol]	-57	6	–	–
COc1ncc(-c2ccc(OCc3c(C)nnn3-c3ccc(C(F)F)cc3)nn2)cn1 [Example 3]	-44.3	13.5	0.6	59.7
Cc1nnn(-c2ccc(C(F)F)cc2)c1COc1ccc(-c2cnc(OCC(C)(C)O)nc2)nn1 [Example 4]	-41.5	22.8	–	–
Cc1nnn(-c2ccc(C(F)F)cc2)c1COc1ccc(-c2cnn(C)c2)nn1 [Example 5]	-37.7	5.8	–	–
Cc1ncc(-c2ccc(OCc3c(C)nnn3-c3ccc(C(F)F)cc3)nn2)o1 [Example 6]	-33.3	6.9	0.7	67.8
CCn1cc(-c2ccc(OCc3c(C)nnn3-c3ccc(C(F)F)cc3)nn2)cn1 [Example 7]	-32	6	2.7	17.7
Cc1nnn(-c2ccc(C(F)F)cc2)c1COc1ccc(-c2cncc(-n3ccnc3)c2)nn1 [Example 8]	-19.5	17	–	–
Cc1nnn(-c2ccc(C(F)F)cc2)c1COc1ccc(-c2cnn(C3CC3)c2)nn1 [Example 9]	-12	47.5	0.8	42.4
Cc1cc(-c2ccc(OCc3c(C)nnn3-c3ccc(C(F)F)cc3)nn2)cnn1 [Example 11]	-17.6	10.3	3.7	18.8
Cc1n[nH]c(C)c1-c1ccc(OCc2c(C)nnn2-c2ccc(C(F)F)cc2)nn1 [Example 12, 3-({1-[4-(difluoromethyl)phenyl]-4-methyl-1H-1,2,3-triazol-5-yl}methoxy)-6-(3,5-dimethyl-1H-pyrazol-4-yl)pyridazine]	-26	13	–	–
CNC(=O)c1cn(-c2ccc(OCc3c(C)nnn3-c3ccc(C(F)F)cc3)nn2)cn1 [Example 14]	-47.3	2.3	3.8	14.6
Cc1nnn(-c2ccc(C(F)F)cc2)c1COc1ccc(-n2cnc(C(F)F)c2)nn1 [Example 15]	-42.5	1.4	1.1	31.8
Cc1nnn(-c2ccc(C(F)F)cc2)c1COc1ccc(-n2cnc(C=O)c2)nn1 [Example 17]	-23	1.7	–	–
Cc1nnn(-c2ccc(C(F)F)cc2)c1COc1ccc(-n2cnc(Cl)c2)nn1 [Example 18]	-27.5	3.7	1.1	28.5
Cc1nnn(-c2ccc(C(F)F)cc2)c1COc1ccc(-n2cnc(S(C)(=O)=O)c2)nn1 [Example 19]	-25	7.7	–	–
Cc1nnn(-c2ccc(C(F)F)cc2)c1COc1ccc(-n2ccc(C#N)n2)nn1 [Example 20]	-19.7	4.4	0.6	52
Cc1nnn(-c2ccc(C(F)F)cc2)c1COc1ccc(-n2ccc(C(N)=O)n2)nn1 [Example 21]	2	–	1.2	25
Cc1nnn(-c2ccc(C(F)F)cc2)c1COc1ccc(-c2cncnc2)nn1 [Example 22]	-17.3	0.5	1.1	49.6
Cc1nnn(-c2ccc(C(F)F)cc2)c1COc1ccc(-n2ccc(C(F)(F)F)n2)nn1 [Example 24]	-9	76.9	0.4	51.3
Cc1nnn(-c2ccc(C(F)F)cc2)c1COc1ccc(-n2cc(C(F)(F)F)cn2)nn1 [Example 25]	-0.7	–	0.3	56.1
Cc1nnn(-c2ccc(C(F)F)cc2)c1COc1ccc(-n2cc3c(n2)CCNC3=O)nn1 [Example 26]	-27	3.4	–	–
Cc1nnn(-c2ccc(C(F)F)cc2)c1COc1ccc(-n2cnc(C(N)=O)c2)nn1 [Example 27, 1-[6-({1-[4-(difluoromethyl)phenyl]-4-methyl-1H-1,2,3-triazol-5-yl}methoxy)pyridazin-3-yl]-1H-imidazole-4-carboxamide]	-35.2	0.4	–	–
COC(=O)c1cn(-c2ccc(OCc3c(C)nnn3-c3ccc(C(F)F)cc3)nn2)cn1 [Example 29]	-29	1.8	2.8	18.8
Cc1nnn(-c2ccc(C(F)F)cc2)c1COc1ccc(-n2cc(C#N)cn2)nn1 [Example 31]	-23	7.4	–	–
CC(=O)c1cn(-c2ccc(OCc3c(C)nnn3-c3ccc(C(F)F)cc3)nn2)cn1 [Example 32]	-22.8	5.7	3.4	17.6
Cc1nnn(-c2ccc(C(F)F)cc2)c1COc1ccc(-n2cnc(CN)c2)nn1 [Example 35, {1-[6-({1-[4-(difluoromethyl)phenyl]-4-methyl-1H-1,2,3-triazol-5-yl}methoxy)pyridazin-3-yl]-1H-imidazol-4-yl}methanamine]	-21.7	2.1	–	–
Cc1nnn(-c2ccc(C(F)F)cc2)c1COc1ccc(-n2cnc(CO)c2)nn1 [Example 38, {1-[6-({1-[4-(difluoromethyl)phenyl]-4-methyl-1H-1,2,3-triazol-5-yl}methoxy)pyridazin-3-yl]-1H-imidazol-4-yl}methanol]	-23	1.7	–	–
Cc1nnn(-c2ccc(C(F)F)cc2)c1COc1ccc(-n2cnc(C(C)(C)O)c2)nn1 [Example 39, 2-{1-[6-({1-[4-(difluoromethyl)phenyl]-4-methyl-1H-1,2,3-triazol-5-yl}methoxy)pyridazin-3-yl]-1H-imidazol-4-yl}propan-2-ol]	-17.3	1.8	–	–
Cc1nnn(-c2ccc(C(F)F)cc2)c1COc1ccc(-n2cnc(C(C)O)c2)nn1 (centres unmarked) [Example 40]	-17	1.9	–	–
